Reference: patent publication US20150367034A1, “CREATION OF THREE-DIMENSIONAL SYNTHETIC TISSUE FROM PLURIPOTENT STEM CELL-DERIVED CELLS, AND OSTEOCHONDRAL REGENERATION TREATMENT USING SAID SYNTHETIC TISSUE” (OSAKA UNIVERSITY, priority 2013, published 2015)

Columns and labels:
ES-MSCs = test: Volume, weight and hydroxyproline of TEC from ES-MSCs with or without ascorbic acid 2-phosphate; type: cell-based, rabbit; settings: 0.2 mM added versus non-added; FIG. 3
Protocol: The protocol thereof is disclosed below.
ES-MSCs were inoculated at a TEC creation concentration (1.52×10^5 cells/well) in each well of a 12 well plate to create a TEC. A medium was created by separating conventional 10% FBS-containing DMEM for TEC creation into a 0.2 mM ascorbic acid added group (n=6) and non-added group (n=6). Three of each group were used for weight/volume measurements and the rest of the three were used in hydroxyproline measurements. For hydroxyproline, the following kit was used (Hydroxyproline Assay Kit Cat#K555-100; Lot#60855, BioVision), where the measurements were taken in accordance with the protocol on the package insert.
For the TEC made from 0.125×10^6, 0.25×10^6, 0.5×10^6, 1×10^6, 2×10^6, 4×10^6, 8×10^6, or 16×10^6 cells/well in a 6 well plate which was cultured over 12 days, detached, and allowed to undergo self-contraction, the volume was measured with a plethysmometer (model TK-101CMP; UNICOM, Chiba, Japan), and the weight was measured with a scale (Ando W, Tateishi K, Katakai D, Hart D A, Higuchi C, Nakata K, et al., Tissue Eng Part A 2008:14:2041-2049). 4 samples were evaluated at each cell density. In short, a plethysmometer is a minute volume controlled measuring device that is specially designed for accurate measurement. A plethysmometer consists of Perspex cells filled with water. A transducer records a small difference in the water level caused by a change in volume. […] The weight was measured with a common scale (METTLER TOLEDO AG204, Mettler-Toledo International Inc., Max210gd=0.1 mg, METTLER TOLEDO AG204 (Mettler-Toledo International Inc.)) in a laboratory […]. Measurements were taken in accordance with the protocol on the package insert.

Synovial cells = test: Extracellular matrix formation and collagen content (hydroxyproline) of synovial cell synthetic tissue; type: cell-based; settings: pig synovial cells
Protocol: Synovial cells were collected from a knee joint of a pig (LWD ternary hybrid, 2-3 months old upon removal of cells), followed by treatment with collagenase. The cells were cultured and subcultured in a 10% fetal bovine serum+High Glucose-DMEM medium (fetal bovine serum available from HyClone, DMEM was obtained from GIBCO). It has been reported that 10th passage synovial cells still have pluripotency. Although cells of 10 or less passages were used in this production example, it is understood that cells of more than 10 passages may be used depending on the application. Autotransplantation was performed for actual human implantation, but it was necessary to secure a sufficient number of cells and to culture the cells for a short period of time so as to reduce the risk of infection or the like. Synovial cells (4.0×10^5) were cultured in 0.1-0.2 ml/cm^2 of 10% FBS-DMEM medium in a 35-mm dish, 60-mm dish, 100-mm dish, 150-mm dish, 500-m dish, 6-well culture dish, 12-well culture dish, or 24-well culture dish (BD Biosciences, cell culture dish and multiwell cell culture plate). In this case, ascorbic acid was added. […] In order to determine the collagen concentration, the collagen content was measured. […]

## O=C1O[C@H]([C@@H](O)CO)C(O)=C1OP(=O)(O)O [ascorbic acid 2-phosphate]
ES-MSCs
  hydroxyproline generation amount of TEC: significantly increased
  volume of TEC: significantly increased
  weight of TEC: significantly increased
Synovial cells; 0.1 mM or more added
  production of collagen (amount of hydroxyproline): significantly promoted
Synovial cells; added at a concentration of 0.1 mM or more
  formation of an extracellular matrix: promoted
